Among the test systems are ACHN renal; K-562 leukemia; HCT-15 colon; NCI/ADR-RES ovarian; HL-60(TB) leukemia; MDA-MB-435; OVCAR-5 ovarian; RPMI-8226 leukemia; SF-268 CNS; HOP-92 NSCLC.
Common to all, as to experiment: DTP human tumour cell line panel, 48 h

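All cell lines were grown in 96-well plates and treated with compound for 48 hours. GI50: concentration for 50% inhibition of growth. TGI: concentration producing complete growth inhibition.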 A value given as a limit tells only on which side of the number the result lay.

For `CC12OC(C(=O)C13CCC3)C1C(=O)c3c(O)ccc(O)c3C(=O)C12` (stereo not drawn), the GI50 – broadly, the concentration at which growth is held to half of that of the control – with ACHN renal was 0.715 µM; with K-562 leukemia it was 1.27 µM; with HCT-15 colon it was 0.952 µM; in the assay on NCI/ADR-RES ovarian it was 0.69 µM; in the assay on HL-60(TB) leukemia, 0.569 µM; in the assay with MDA-MB-435, 2.3 µM. The results for the GI50 with OVCAR-5 ovarian, with RPMI-8226 leukemia and with SF-268 CNS were 2.14 µM, 0.336 µM and 7.96 µM, respectively. Moreover, the concentration for total growth inhibition (TGI) – broadly, the concentration giving total growth inhibition – with ACHN renal is 2.01 µM; in the assay with K-562 leukemia, 10.3 µM; in the assay on HCT-15 colon it was 3.4 µM; with NCI/ADR-RES ovarian it was 2.63 µM; in the assay with HL-60(TB) leukemia it was 2.39 µM; with MDA-MB-435, 5.81 µM. The concentration for total growth inhibition (TGI) in the assay with OVCAR-5 ovarian amounted to 4.29 µM; with RPMI-8226 leukemia it was 3.11 µM; with SF-268 CNS, 26.3 µM.
For `CN(CCN1C(=O)c2cccc3cccc(c23)C1=O)CCN1C(=O)c2cccc3cccc(c23)C1=O`, the TGI is 20.7 µM in the assay with ACHN renal; above 100 µM in the assay with K-562 leukemia; above 100 µM in the assay on HCT-15 colon; above 100 µM in the assay on NCI/ADR-RES ovarian; above 100 µM with HL-60(TB) leukemia; above 100 µM in the assay with MDA-MB-435. Moreover, the TGI in the assay with OVCAR-5 ovarian and in the assay with SF-268 CNS was above 100 µM throughout.
As for `CC(CCCCNC(=O)OC(C)(C)C)NC(=O)NC(C)CCCCNC(=O)OC(C)(C)C` (stereo not drawn), the TGI in the assay on ACHN renal, with K-562 leukemia, with HCT-15 colon, in the assay on NCI/ADR-RES ovarian, with HL-60(TB) leukemia and in the assay with MDA-MB-435 was above 100 µM in each case. For the same compound, the total growth inhibition concentration (TGI) with OVCAR-5 ovarian, in the assay on SF-268 CNS and in the assay with HOP-92 NSCLC was above 100 µM each time.
Take `CC(NC(=O)c1ccc(OP(=O)(OCc2ccc([N+](=O)[O-])o2)N(C)CCCCCl)cc1)c1ccc(OCC2CCCCC2)c(C(N)=O)c1` (stereo not drawn): the TGI in the assay with ACHN renal is above 35.4 µM; in the assay on K-562 leukemia, 18 µM; in the assay on HCT-15 colon, 8.14 µM; in the assay on NCI/ADR-RES ovarian, above 100 µM; with HL-60(TB) leukemia it was 12.3 µM; in the assay with MDA-MB-435 it was 6.3 µM. The TGI in the assay with OVCAR-5 ovarian was above 47.6 µM; with RPMI-8226 leukemia, 3.24 µM; in the assay with SF-268 CNS, 10.9 µM; with HOP-92 NSCLC it was 4.75 µM.
Turning to `CCCC(=O)Nc1cc(/C=C/C(=O)N2CC(CCl)c3c2cc(OC(C)=O)c2[nH]cc(C)c32)n(C)c1` (stereo not drawn), the TGI was above 0.197 µM in the assay with K-562 leukemia; above 0.134 µM in the assay with HCT-15 colon; 0.0121 µM with NCI/ADR-RES ovarian; 0.00101 µM in the assay on HL-60(TB) leukemia; 0.000686 µM in the assay with MDA-MB-435; 0.00762 µM with RPMI-8226 leukemia. In addition, the figures for the TGI with SF-268 CNS and with HOP-92 NSCLC were below 2.5e-05 µM and 0.000146 µM, respectively.
As to `CCOC(=O)c1cccc(N=Nc2ncc(/C=C/C(=O)OC)[nH]2)c1`, the total growth inhibition concentration (TGI) is 72 µM in the assay with ACHN renal; above 100 µM with K-562 leukemia; above 100 µM in the assay with HCT-15 colon; above 100 µM with NCI/ADR-RES ovarian; 30 µM in the assay with HL-60(TB) leukemia; above 100 µM in the assay on MDA-MB-435. In addition, the concentration for total growth inhibition (TGI) with OVCAR-5 ovarian is above 100 µM; in the assay on RPMI-8226 leukemia it was 40.5 µM; in the assay with SF-268 CNS it was above 100 µM; in the assay on HOP-92 NSCLC, above 100 µM.
`O=C1/C(=C/c2ccc([N+](=O)[O-])cc2)Sc2scc(-c3cccc([N+](=O)[O-])c3)[n+]21`: the TGI in the assay on ACHN renal came to 14 µM; in the assay on K-562 leukemia, 8.16 µM; with HCT-15 colon it was 5.75 µM; in the assay with NCI/ADR-RES ovarian, 26.3 µM; in the assay with HL-60(TB) leukemia, 1.07 µM; in the assay on MDA-MB-435, 18.4 µM. For the same compound, the TGI with OVCAR-5 ovarian stood at 24.8 µM; with RPMI-8226 leukemia, 11.4 µM; in the assay with SF-268 CNS, 7.75 µM; in the assay with HOP-92 NSCLC it was 13.8 µM.
As to `CN(CCCNC(=O)c1nn(-c2ccccc2)c2c1Cc1ccccc1-2)CCCNC(=O)c1nn(-c2ccccc2)c2c1Cc1ccccc1-2`, the total growth inhibition concentration (TGI) with ACHN renal came out at 3.12 µM; in the assay on K-562 leukemia it was 2.17 µM; in the assay with HCT-15 colon, 3.1 µM; with NCI/ADR-RES ovarian, 3.37 µM; in the assay with HL-60(TB) leukemia, 2.5 µM; in the assay on MDA-MB-435, 2.87 µM. Also, the TGI with OVCAR-5 ovarian amounted to 3.26 µM; in the assay on RPMI-8226 leukemia, 4.22 µM; in the assay with SF-268 CNS it was 3.31 µM; in the assay with HOP-92 NSCLC, 3.26 µM.
As for `CC(C)C(=O)CC(c1ccc(Br)cc1)N1N=C(C(C)C)CC1c1ccc(Br)cc1` (stereo not drawn), the total growth inhibition concentration (TGI) in the assay on ACHN renal, in the assay with K-562 leukemia, with HCT-15 colon, in the assay on OVCAR-5 ovarian, with SF-268 CNS and with HOP-92 NSCLC was above 100 µM in each case.
Turning to `COc1cc(/C=C2\CC3C4CC[C@H]5C[C@@H](O)CC[C@]5(C)C4CC[C@]3(C)\C2=N\O)cc(OC)c1OC` (stereo partly drawn), the total growth inhibition concentration (TGI) in the assay on ACHN renal was 39.8 µM; in the assay with K-562 leukemia, above 100 µM; with HCT-15 colon, above 100 µM; in the assay on NCI/ADR-RES ovarian, 48.6 µM; in the assay with HL-60(TB) leukemia it was 55.8 µM; with MDA-MB-435, 34.8 µM. Besides, the TGI in the assay with OVCAR-5 ovarian was above 100 µM; in the assay with RPMI-8226 leukemia, 23.4 µM; in the assay with SF-268 CNS, above 100 µM; in the assay on HOP-92 NSCLC, above 100 µM.
For the compound `CC(C)(C)COS(=O)OCC(C)(C)C`, the TGI in the assay on ACHN renal, with K-562 leukemia, with HCT-15 colon, with NCI/ADR-RES ovarian, in the assay with HL-60(TB) leukemia and with MDA-MB-435 was above 100 µM throughout. Moreover, the TGI with OVCAR-5 ovarian, in the assay on RPMI-8226 leukemia, with SF-268 CNS and in the assay on HOP-92 NSCLC was above 100 µM in each case.
As for `CC1(C)CC(C(=O)OCCCCCCCCCCC[P+](c2ccccc2)(c2ccccc2)c2ccccc2)C(C)(C)N1O` (stereo not drawn), the GI50 in the assay with ACHN renal was 0.422 µM; with K-562 leukemia, 0.0852 µM; in the assay with HCT-15 colon it was 0.87 µM; in the assay on HL-60(TB) leukemia it was 0.0355 µM; in the assay on MDA-MB-435 it was 0.274 µM; in the assay on OVCAR-5 ovarian, 0.386 µM. Further, the GI50 with SF-268 CNS is 0.394 µM. The TGI was found to be 1.48 µM in the assay with ACHN renal; 0.784 µM in the assay with K-562 leukemia; 2.23 µM with HCT-15 colon; 0.13 µM with HL-60(TB) leukemia; 1.33 µM in the assay with MDA-MB-435; 1.38 µM in the assay with OVCAR-5 ovarian. The concentration for total growth inhibition (TGI) in the assay on SF-268 CNS amounted to 1.54 µM.
Consider `Oc1ccc(Cl)cc1C1=Nn2c(COc3ccc4c(c3)CCCC4)nnc2SC1`, for which the concentration for total growth inhibition (TGI) in the assay on ACHN renal came out at 49.7 µM; in the assay on K-562 leukemia it was 49.4 µM; in the assay on HCT-15 colon, 36.7 µM; in the assay with NCI/ADR-RES ovarian, 41.2 µM; in the assay with HL-60(TB) leukemia, 38.2 µM; in the assay with MDA-MB-435 it was 36.1 µM. Further, the TGI in the assay on OVCAR-5 ovarian was 34.6 µM; with RPMI-8226 leukemia, 19.3 µM; in the assay with SF-268 CNS it was 35 µM; in the assay on HOP-92 NSCLC it was 18.1 µM.
